Assay results from publication PMC9354705, “Characterization of TR‐107, a novel chemical activator of the human mitochondrial protease ClpP” (Pharmacology Research & Perspectives, 2022).

System: MDA‐MB‐231 xenografts
Assay: MDA‐MB‐231 mouse xenograft study
Format: in vivo
Method: Mitochondrial DNA copy number was determined as previously described.[23] Briefly, genomic DNA was isolated from tissue lysate with DNeasy Blood & Tissue kit (Qiagen, 69504). mtDNA copy number was determined by quantitative PCR with a human mitochondrial to nuclear DNA ratio kit (Takara Bio USA, 7246).
Female athymic nude mice (Crl:NU[Ncr]‐Foxn1^ nu , Charles River) were 8 weeks old with body weight (BW) range of 19.0–27.0 g on Day 1 of the study. Animals were fed ad libitum water (reverse osmosis, 1 ppm Cl) and NIH 31 Modified and Irradiated Lab Diet® consisting of 18.0% crude protein, 5.0% crude fat, and 5.0% crude fiber. Mice were housed on irradiated Enrich‐o'cobs™ Laboratory Animal Bedding in static microisolators on a 14‐h light cycle at 20–22°C and 40%–60% humidity. Charles River Discovery Services North Carolina (CR Discovery Services) specifically complies with the recommendations of the Guide for Care and Use of Laboratory Animals with respect to restraint, husbandry, surgical procedures, feed and fluid regulation, and veterinary care. The animal care and use program at CR Discovery Services is accredited by the Association for Assessment and Accreditation of Laboratory Animal Care International.
MDA‐MB‐231 human breast adenocarcinoma cells were grown to mid‐log phase in RPMI‐1640 supplemented with 10% FBS, 2 mM glutamine, 100 units/ml sodium penicillin G, 25 μg/ml gentamicin, 100 μg/ml streptomycin sulfate, 0.075% sodium bicarbonate, 10 mM HEPES, and 1 mM sodium pyruvate. Cells were cultures at 37°C and 5% CO2.
MDA‐MB‐231 cells were harvested during exponential growth and resuspended in cold, sterile DPBS. Each animal received an orthotopic injection of 5 × 10^6 cells (0.05 ml volume) into the mammary fat pad. Tumor growth was monitored as the average tumor size approached the target range of 60–100 mm^3. Tumors were measured in two dimensions via caliper and volume was calculated using the following formula: Tumor Volume=w^2×l/2, where w is the width and l is the length (mm) of the tumor. Tumor weight was estimated based on the assumption that 1 mg = 1 mm^3. Fourteen days later (Day 1), animals were sorted into groups (n = 10 per group) with a mean tumor volume of 70–73 mm^3.
Compounds were administered orally (p.o.) in a dosing volume of 10 ml/kg. Twice daily doses (B.I.D) were administered at least 6 h apart.
Tumors were measured using calipers biweekly and animals were euthanized upon reaching tumor volume > 1500 mm^3 or on the final study day (Day 36), whichever came first. Time to endpoint (TTE) for analysis was calculated for animals that exited the study due to tumor volume using the following equation: TTE=log10endpoint volume−b/m, where TTE is expressed in days, endpoint volume is expressed in mm^3, b is the y‐intercept, and m is the slope of the line obtained by linear regression of a log‐transformed tumor growth data set. […] In instance where this equation yields a TTE day preceding the day prior to reaching the endpoint or exceeding the day of reaching the endpoint, a linear interpolation was performed to approximate TTE. Animals documented as having died of nontreatment‐related causes due to accident or unknown etiology were excluded from TTE calculations and all further analysis. Animals documented having died due to treatment‐related deaths or nontreatment‐related due to metastasis were assigned a TTE value equivalent to the day of death. Treatment outcome was evaluated from tumor growth delay (TGD) defined as the increase in the median TTE in the treatment group compared with the control group.
On Day 36, all animals in all groups were sampled. Tumors were excised, divided into two parts, and weighed. Part 1 was preserved in a 5 ml fixative solution (4% formaldehyde, 2% glutaraldehyde in 0.1 M cacodylate buffer) and stored at 4°C. Part 2 was trimmed to be less than 0.5 cm in at least one dimension, submerged in five volumes of RNAlater solution, and stored at −20°C.

N#Cc1cccc(CN2CCc3ncn(Cc4ccc(Cl)cc4)c(=O)c3C2)c1 [TR‐107]
reduction in tumor volume (4 mg/kg (G2) and 8 mg/kg (G3) oral, day 26, vs vehicle): ~ 50%
increase in median survival (4 mg/kg and 8 mg/kg oral, both groups, vs vehicle): ~ 35%
mitochondrial DNA in tumor lysates (8 mg/kg (G3) vs control, end of study): substantial loss
PYCR2 and HMGCS1 protein levels in tumor lysates (8 mg/kg vs vehicle): significantly reduced
TFAM in xenograft tumor lysates (immunoblot) (8 mg/kg vs vehicle): significant loss
weight loss (even at the highest dosing regimen): less than 5%
tolerability (oral 4 and 8 mg/kg): well tolerated
